We go through 25 compounds from US20080161288A1, “COMPOUNDS” (Pfizer Inc., priority 2006, published 2008).

As a reminder, the EC50 is the concentration at which the effect is half-maximal.

Structures can show the parent of a compound that is named as a salt.

Test [1] has as its target T1, bovine beta-2 adrenoceptor (Bos taurus, UniProt Q28044).
T1 construct: expressed in transfected cells; host or cells: CHO cells
Description: cAMP assay in CHO cells transfected with the bovine beta-2 adrenoceptor. The test is classed as cell-based. The following applies: cAMP (DiscoveRx Hit Hunter cAMP II) in CHO cells transfected with bovine beta-2 adrenoceptor, 30 minutes with compound, 0.5 mM IBMX. Here is the method:
(§1) CHO cells transfected with the bovine or porcine beta-2 adrenceptors were maintained in culture in DMEM/HAMS F12+10% FBS+2 mM glutamine+500 μg/ml geneticin (for the porcine receptor the medium was supplement with 1.5 mM HEPES) at 37° C. with a 5% CO2 atmosphere.
(§2) Cells were plated into 96 well viewplates in medium and incubated overnight at 37° C. with a 5% CO2 atmosphere. The cells were pre-incubated with 0.5 mM IBMX in PBS for 30 minutes prior to incubation with increasing concentrations of experimental compound (5×10^−12 to 10^−5 M) for 30 minutes at 37° C. with a 5% CO2 atmosphere. At the end of the incubation time the compound was removed and the cells assayed for cAMP using the DiscoveRx Hit Hunter cAMP II™ assay kit.
(§3) Duplicate samples were run for each experimental compound and the data generated was analysed using EC50 analysis software in Graphpad Prism.
For orientation: Changes in cAMP serve as a functional read-out for many G protein-coupled receptors.

Test [2] deals with T2, porcine beta-2 adrenoceptor (Sus scrofa, UniProt Q28997).
T2 construct: expressed in transfected cells; host or cells: CHO cells
T2 sequence (Q28997 whole entry): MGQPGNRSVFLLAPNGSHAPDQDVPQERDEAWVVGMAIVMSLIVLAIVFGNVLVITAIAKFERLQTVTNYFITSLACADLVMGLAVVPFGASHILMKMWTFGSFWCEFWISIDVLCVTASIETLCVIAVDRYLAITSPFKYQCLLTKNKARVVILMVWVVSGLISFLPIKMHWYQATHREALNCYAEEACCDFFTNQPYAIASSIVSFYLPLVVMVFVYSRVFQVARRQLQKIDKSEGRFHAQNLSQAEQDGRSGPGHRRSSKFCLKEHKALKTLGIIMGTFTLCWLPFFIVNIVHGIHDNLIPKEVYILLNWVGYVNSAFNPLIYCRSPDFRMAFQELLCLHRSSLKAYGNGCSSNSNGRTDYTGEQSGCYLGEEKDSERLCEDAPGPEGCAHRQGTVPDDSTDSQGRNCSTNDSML
Description: cAMP assay in CHO cells transfected with the porcine beta-2 adrenoceptor. The test is classed as cell-based. The note with it: cAMP (DiscoveRx Hit Hunter cAMP II) in CHO cells transfected with porcine beta-2 adrenoceptor, 30 minutes with compound, 0.5 mM IBMX. The method, then:
as §1, §2, §3

T1 sequence (Q28044 whole entry): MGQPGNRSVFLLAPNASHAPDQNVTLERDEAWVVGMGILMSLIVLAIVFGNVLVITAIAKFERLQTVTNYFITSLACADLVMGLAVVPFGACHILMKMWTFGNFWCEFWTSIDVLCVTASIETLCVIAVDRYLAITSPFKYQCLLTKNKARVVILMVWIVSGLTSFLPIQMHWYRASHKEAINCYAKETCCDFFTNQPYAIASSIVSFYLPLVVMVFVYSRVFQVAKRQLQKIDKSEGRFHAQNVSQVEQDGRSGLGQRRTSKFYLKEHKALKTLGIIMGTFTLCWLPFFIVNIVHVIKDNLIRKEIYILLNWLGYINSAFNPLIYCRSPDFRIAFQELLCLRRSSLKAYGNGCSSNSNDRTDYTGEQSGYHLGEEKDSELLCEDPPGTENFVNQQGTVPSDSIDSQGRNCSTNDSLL

With `CC(CCc1cccc(O)c1)N[C@@H]1CCn2c(=O)[nH]c3cccc(c32)[C@H]1O` (mixture of isomers) [Example 43, 7-Hydroxy-6-{[3-(3-hydroxyphenyl)-1-methylpropyl]amino}-4,5,6,7-tetrahydroimidazo[4,5,1-jk][1]benzazepin-2(1H)-one], the EC50 in test [1] was found to be 7.2 nM; in test [2] it was 5.6 nM.

Take `CC(CCc1ccc(NS(=O)(=O)C(F)(F)F)cc1)NC1CCn2c(=O)[nH]c3cccc(c32)C1O` (single isomer, unassigned) [Example 69, 1,1,1-Trifluoro-N-{4-[3-{[7-hydroxy-2-oxo-1,2,4,5,6,7-hexahydroimidazo[4,5,1-jk][1]benzazepin-6-yl]amino}butyl]phenyl}methanesulfonamide]: the EC50 in test [1] was 234 nM; in test [2] it was 50.3 nM.

As to `C[C@@H](CCc1cccc(NC(=O)C(F)(F)F)c1)N[C@@H]1CCn2c(=O)[nH]c3cccc(c32)[C@H]1O` (single isomer, unassigned) [Example 57, 2,2,2-Trifluoro-N-{3-[3-{[7-hydroxy-2-oxo-1,2,4,5,6,7-hexahydroimidazo[4,5,1-jk][1]benzazepin-6-yl]amino}butyl]phenyl}acetamide], the EC50 was 6.1 nM in test [1] and 7.1 nM in test [2].

Consider `CNC(=O)c1cccc(CCC(C)NC2CCn3c(=O)[nH]c4cccc(c43)C2O)c1` (single isomer, unassigned) [Example 62, 3-[3-{[7-Hydroxy-2-oxo-1,2,4,5,6,7-hexahydroimidazo[4,5,1-jk][1]benzazepin-6-yl]amino}butyl]-N-methylbenzamide], for which the values for the EC50 in test [1] and in test [2] were 24.3 nM and 18.9 nM, respectively.

For the compound `CC(CCc1ccc(C(=O)NCC(F)(F)F)cc1)N[C@@H]1CCn2c(=O)[nH]c3cccc(c32)[C@H]1O` (single isomer, unassigned) [Example 52, 4-[-3-{[7-Hydroxy-2-oxo-1,2,4,5,6,7-hexahydroimidazo[4,5,1-jk][1]benzazepin-6-yl]amino}butyl]-N-(2,2,2-trifluoroethyl)benzamide], the EC50 stood at 7.7 nM in test [1] and 38.4 nM in test [2].

With `C[C@H](CCc1ccc(N)cc1)N[C@@H]1CCn2c(=O)[nH]c3cccc(c32)[C@H]1O` (single isomer, unassigned) [Example 45, 6-{[3-(4-Aminophenyl)-1-methylpropyl]amino}-7-hydroxy-4,5,6,7-tetrahydroimidazo[4,5,1-jk][1]benzazepin-2(1H)-one], the figures for the EC50 in test [1] and in test [2] were 30.3 nM and 21 nM, respectively.

`CC(CC(C)(C)c1ccccc1)N[C@@H]1CCn2c(=O)[nH]c3cccc(c32)[C@H]1O` (single isomer, unassigned) [Example 14a, 6-[(1,3-Dimethyl-3-phenylbutyl)amino]-7-hydroxy-4,5,6,7-tetrahydroimidazo[4,5,1-jk][1]benzazepin-2(1H)-one]: the EC50 in test [1] amounted to 428 nM; in test [2], 385 nM.

Regarding `CC(CCc1cc(Cl)ccc1O)N[C@@H]1CCn2c(=O)[nH]c3cccc(c32)[C@H]1O` (single isomer, unassigned) [Example 19b, 6-{[3-(5-Chloro-2-hydroxyphenyl)-1-methylpropyl]amino}-7-hydroxy-4,5,6,7-tetrahydroimidazo[4,5,1-jk][1]benzazepin-2(1H)-one], the EC50 in test [1] was determined as 123 nM; in test [2], 101 nM.

Regarding `CC(CCc1ccccc1O)N[C@@H]1CCn2c(=O)[nH]c3cccc(c32)[C@H]1O` (single isomer, unassigned) [Example 48, Hydrochloride salt of 7-hydroxy-6-{[3-(2-hydroxyphenyl)-1-methylpropyl]amino}-4,5,6,7-tetrahydroimidazo[4,5,1-jk][1]benzazepin-2(1H)-one], the EC50 came out at 1 nM in test [1] and 1.9 nM in test [2].

For the compound `CC(CCc1ccc2c(c1)CCO2)N[C@@H]1CCn2c(=O)[nH]c3cccc(c32)[C@H]1O` (single isomer, unassigned) [Example 3b, 6-{[3-(2,3-Dihydro-1-benzofuran-5-yl)-1-methylpropyl]amino}-7-hydroxy-4,5,6,7-tetrahydroimidazo[4,5,1-jk][1]benzazepin-2(1H)-one], the EC50 in test [1] was determined as 456 nM; in test [2], 108 nM.

For `Cc1ccccc1CCC(C)N[C@@H]1CCn2c(=O)[nH]c3cccc(c32)[C@H]1O` (mixture of isomers) [Example 13b, 7-hydroxy-6-{[1-Methyl-3-(2-methylphenyl)propyl]amino}-4,5,6,7-tetrahydroimidazo[4,5,1-jk][1]benzazepin-2(1H)-one], the EC50 in test [1] was 2 nM; in test [2], 0.9 nM.

With `CC(CCc1ccccc1O)N[C@@H]1CCn2c(=O)[nH]c3cccc(c32)[C@H]1O` (single isomer, unassigned) [Example 6d, 7-Hydroxy-6-{[3-(2-hydroxyphenyl)-1-methylpropyl]amino}-4,5,6,7-tetrahydroimidazo[4,5,1-jk][1]benzazepin-2(1H)-one], the EC50 in test [1] was determined as 315 nM; in test [2] it was 410 nM.

In the case of `CC(CCc1cc(Cl)cc(Cl)c1O)N[C@@H]1CCn2c(=O)[nH]c3cccc(c32)[C@H]1O` (mixture of isomers) [Example 25, 6-{[3-(3,5-Dichloro-2-hydroxyphenyl)-1-methylpropyl]amino}-7-hydroxy-4,5,6,7-tetrahydroimidazo[4,5,1-jk][1]benzazepin-2(1H)-one], the values for the EC50 in test [1] and in test [2] were 2.2 nM and 2.7 nM, respectively.

Regarding `CC(CCc1cc(F)ccc1O)N[C@@H]1CCn2c(=O)[nH]c3cccc(c32)[C@H]1O` (single isomer, unassigned) [Example 7a, 6-{[3-(5-Fluoro-2-hydroxyphenyl)-1-methylpropyl]amino}-7-hydroxy-4,5,6,7-tetrahydroimidazo[4,5,1-jk][1]benzazepin-2(1H)-one], the EC50 stood at 77.7 nM in test [1] and 104 nM in test [2].

Turning to `CC(CCc1cc(C#N)ccc1O)N[C@@H]1CCn2c(=O)[nH]c3cccc(c32)[C@H]1O` (mixture of isomers) [Example 22, 4-Hydroxy-3-(3-{[7-hydroxy-2-oxo-1,2,4,5,6,7-hexahydroimidazo[4,5,1-jk][1]benzazepin-6-yl]amino}butyl)benzonitrile], the EC50 was determined as 1.2 nM in test [1] and 2.3 nM in test [2].

Take `CC(CCc1ccc(C(F)(F)F)cc1)N[C@@H]1CCn2c(=O)[nH]c3cccc(c32)[C@H]1O` (mixture of isomers) [Example 18, 7-Hydroxy-6-({1-methyl-3-[4-(trifluoromethyl)phenyl]propyl}amino)-4,5,6,7-tetrahydroimidazo[4,5,1-jk][1]benzazepin-2(1H)-one]: the EC50 in test [1] amounted to 29.6 nM; in test [2], 10.7 nM.

For `COc1cccc(CCC(C)N[C@@H]2CCn3c(=O)[nH]c4cccc(c43)[C@H]2O)c1O` (single isomer, unassigned) [Example 8b, 7-hydroxy-6-{[3-(2-hydroxy-3-methoxyphenyl)-1-methylpropyl]amino}-4,5,6,7-tetrahydroimidazo[4,5,1-jk][1]benzazepin-2(1H)-one], the EC50 in test [1] is 0.7 nM; in test [2], 1.1 nM.

As to `CC(CCc1cccc(F)c1O)N[C@@H]1CCn2c(=O)[nH]c3cccc(c32)[C@H]1O` (single isomer, unassigned) [Example 28a], the EC50 in test [1] was 1.5 nM; in test [2], 1.8 nM.

In the case of `C[C@H](CCc1cccc(Cl)c1O)N[C@@H]1CCn2c(=O)[nH]c3cccc(c32)[C@H]1O` (single isomer, unassigned) [Example 5c], the EC50 is 2.7 nM in test [1] and 6 nM in test [2].

In the case of `CC(CCc1cccc(Cl)c1O)N[C@@H]1CCn2c(=O)[nH]c3cccc(c32)[C@H]1O` (single isomer, unassigned) [Example 5a, 6-{[3-(3-Chloro-2-hydroxyphenyl)-1-methylpropyl]amino}-7-hydroxy-4,5,6,7-tetrahydroimidazo[4,5,1-jk][1]benzazepin-2(1H)-one], the results for the EC50 in test [1] and in test [2] were 307 nM and 473 nM, respectively.

Turning to `CC(CCc1ccccc1)N[C@@H]1CCn2c(=O)[nH]c3cccc(c32)[C@H]1O` (single isomer, unassigned) [Example 9e, 7-Hydroxy-6-[(1-methyl-3-phenylpropyl)amino]-4,5,6,7-tetrahydroimidazo[4,5,1-jk][1]benzazepin-2(1H)-one], the EC50 came to 7 nM in test [1] and 2.3 nM in test [2].

Turning to `CC(CCc1ccc(NC(=O)C(F)(F)F)cc1)NC1CCn2c(=O)[nH]c3cccc(c32)C1O` (single isomer, unassigned) [Example 59], the EC50 came to 10.4 nM in test [1] and 12.1 nM in test [2].

With `CC(CCc1c(Cl)ccc(O)c1Cl)NC1CCn2c(=O)[nH]c3cccc(c32)C1O` (single isomer, unassigned) [Example 55], the EC50 was determined as 4.3 nM in test [1] and 2.7 nM in test [2].

`CC(C=Cc1cccc(O)c1)NC1CCn2c(=O)[nH]c3cccc(c32)C1O` (centres unmarked) [Example 41, 7-Hydroxy-6-{[3-(3-hydroxyphenyl)-1-methylprop-2-en-1-yl]amino}-4,5,6,7-tetrahydroimidazo[4,5,1-jk][1]benzazepin-2(1H)-one]: the EC50 was 13.3 nM in test [1] and 6.6 nM in test [2].

In the case of `CC(CCc1ccccc1O)N[C@@H]1CCn2c(=O)[nH]c3cccc(c32)[C@H]1O` (mixture of isomers) [Example 6a, 7-Hydroxy-6-{[3-(2-hydroxyphenyl)-1-methylpropyl]amino}-4,5,6,7-tetrahydroimidazo[4,5,1-jk][1]benzazepin-2(1H)-one], the concentration giving a half-maximal response (EC50) in test [1] and in test [2] was 1.5 nM in each case.
